From patent publication US20190358181A1, “METHODS FOR AUTISM SPECTRUM DISORDER PHARMACOTHERAPY” (priority 2017, published 2019)

Test system: 610 metabolites from 63 biochemical pathways
Experiment: Targeted broad-spectrum plasma metabolomic analysis (LC-MS/MS), paired pre-infusion vs post-infusion (2-days and 6-weeks)
Type: in vivo, human
Conditions: plasma, 2-days after infusion vs pre-infusion
Description: Targeted, broad-spectrum, plasma metabolomic analysis of 610 metabolites from 63 biochemical pathways was performed by high performance liquid chromatography and tandem mass spectrometry (LC-MS/MS) on the samples collected from patients in Example 1. Venous blood was collected between the hours of 8 am and 5 pm, at least 3 hours after the last meal, into lithium-heparin vacutainer tubes (BD #367884). Plasma was separated by centrifugation at 900 g×10 minutes at room temperature within one hour of collection. The resulting fresh lithium-heparin plasma was transferred to labeled 1.2 ml or 2.0 ml externally threaded cryotubes with a minimum headspace air gap for storage at −80° C. for analysis. Samples were analyzed on an AB SCIEX QTRAP 5500 triple quadrupole mass spectrometer equipped with a Turbo V electrospray ionization (ESI) source, Shimadzu LC-20A UHPLC system, and a PAL CTC autosampler. Typically, 90 μl of plasma was thawed on ice and transferred to a 1.7 ml Eppendorf tube. Five (5.0) μl of a cocktail containing 25-35 commercial stable isotope internal standards, and 5.0 μl of 57 stable isotope internal standards that were custom-synthesized in E. coli NCM3722, Caenorhabditis elegans N2, and Komagataella phaffii (ATCC 76273; formerly known as Pichia pastoris) by metabolic labeling with 13C-glucose and 13C-bicarbonate, were added, mixed, and incubated for 10 min at 20° C. to permit small molecules and vitamins in the internal standards to associate with plasma binding proteins. Macromolecules (protein, DNA, RNA, glycans, etc.) were precipitated by extraction with 4 volumes (400 μl) of cold (−20° C.), acetonitrile:methanol (50:50) (LCMS grade, Cat #LC015-2.5 and GC230-4, Burdick & Jackson, Honeywell), vortexed vigorously, and incubated on crushed ice for 10 min, then removed by centrifugation at 16,000 g×10 min at 4° C. The supernatants containing the extracted metabolites and internal standards in the resulting 40:40:20 solvent mix of acetonitrile:methanol:water were transferred to labeled cryotubes and stored at −80° C. for LCMS/MS analysis.
LC-MS/MS analysis was performed by scheduled multiple reaction monitoring (sMRM) under Analyst v1.6.2 software control in both negative and positive mode with rapid polarity switching (50 ms). Nitrogen was used for curtain gas (set to 30), collision gas (set to high), ion source gas 1 and 2 (set to 35). The source temperature was 500° C. Spray voltage was set to −4500 V in negative mode and 5500 V in positive mode. The values for Q1 and Q3 mass-to-charge ratios (m/z), declustering potential (DP), entrance potential (EP), collision energy (CE), and collision cell exit potential (CXP) were determined and optimized for each MRM for each metabolite. Ten microliters of extract was injected by PAL CTC autosampler via a 10 μl stainless steel loop into a 250 mm×2.0 mm, 4 μm polymer based NH2 HPLC column (Asahipak NH2P-40 2E, Showa Denko America, Inc., NY) held at 25° C. for chromatographic separation. The mobile phase was solvent A: 95% water with 20 mM (NH4)2CO3 (Sigma, Fluka Cat #74415-250G-F), 5% acetonitrile, and 38 mM NH4OH (Sigma, Fluka Cat #17837-100ML), final pH 9.75; solvent B: 100% acetonitrile. Separation was achieved using the following gradient: 0-3.5 min: 95% B, 3.6-8 min: 85% B, 8.1-13 min: 75% B, 13.5-35 min: 0% B, 36-46 min: 95% B, 46.1 min: end. The flow rate was 200 μl/min. Pump pressures ranged from 920-2600 psi over the course of the gradient. All the samples were kept at 4° C. during analysis. The chromatographic peaks were identified using MultiQuant (v3.0, Sciex), confirmed by manual inspection, and the peak areas integrated. […]

[1] = Cholesterol, Cortisol, Non-Gonadal Steroid Metabolism
[2] = Eicosanoid and Resolvin Metabolism
[3] = Fatty Acid Oxidation and Synthesis
[4] = GABA, Glutamate, Arginine, Ornithine, Proline Metabolism
[5] = Gamma-Glutamyl and other Dipeptides
[6] = Glycolysis and Gluconeogenesis Metabolism
[7] = Histidine, Histamine, Carnosine Metabolism
[8] = Nitric Oxide, Superoxide, Peroxide Metabolism

Cc1ccc(C(=O)Nc2ccc(S(=O)(=O)O)c3cc(S(=O)(=O)O)cc(S(=O)(=O)O)c23)cc1NC(=O)c1cccc(NC(=O)Nc2cccc(C(=O)Nc3cc(C(=O)Nc4ccc(S(=O)(=O)O)c5cc(S(=O)(=O)O)cc(S(=O)(=O)O)c45)ccc3C)c2)c1 [Suramin, suramin]
Z Abs, Ceramide(d18:1/18:2) (Ceramide Metabolism): 0.530 | Z Score, Ceramide(d18:1/18:2) (Ceramide Metabolism): 0.530 | Linear Ratio, 24,25-Epoxycholesterol [1]: 1.362 | VIP Score, 24,25-Epoxycholesterol [1]: 1.807 | Z Abs, 24,25-Epoxycholesterol [1]: 1.014 | Z Score, 24,25-Epoxycholesterol [1]: 1.014 | Linear Ratio, 5-HETE [2]: 0.866 | Linear Ratio, 11(R)-HETE [2]: 0.748 | Linear Ratio, 11,12-Epoxyeicosatrienoic acid [2]: 0.828 | Linear Ratio, Prostaglandin J2 [2]: 0.649 | VIP Score, 5-HETE [2]: 1.646 | VIP Score, 11(R)-HETE [2]: 2.400 | VIP Score, 11,12-Epoxyeicosatrienoic acid [2]: 1.535 | VIP Score, Prostaglandin J2 [2]: 1.509 | Z Abs, 5-HETE [2]: 0.671 | Z Abs, 11(R)-HETE [2]: 0.875 | Z Abs, 11,12-Epoxyeicosatrienoic acid [2]: 0.634 | Z Abs, Prostaglandin J2 [2]: 0.601 | Z Score, 5-HETE [2]: −0.671 | Z Score, 11(R)-HETE [2]: −0.875 | Z Score, 11,12-Epoxyeicosatrienoic acid [2]: −0.634 | Z Score, Prostaglandin J2 [2]: −0.601 | Linear Ratio, Anandamide (Endocannabinoid Metabolism): 0.684 | VIP Score, Anandamide (Endocannabinoid Metabolism): 1.713 | Z Abs, Anandamide (Endocannabinoid Metabolism): 0.709 | Z Score, Anandamide (Endocannabinoid Metabolism): −0.709 | Linear Ratio, Malonic acid [3]: 0.904 | VIP Score, Malonic acid [3]: 1.833 | Z Abs, Malonic acid [3]: 0.825 | Z Score, Malonic acid [3]: −0.825 | Linear Ratio, Gamma-Aminobutyric acid [4]: 1.068 | Linear Ratio, L-Proline [4]: 1.155 | Linear Ratio, N-Acetylglutamic acid [4]: 1.120 | VIP Score, Gamma-Aminobutyric acid [4]: 1.626 | VIP Score, L-Proline [4]: 1.548 | VIP Score, N-Acetylglutamic acid [4]: 1.505 | Z Abs, Gamma-Aminobutyric acid [4]: 1.101 | Z Abs, L-Proline [4]: 0.603 | Z Abs, N-Acetylglutamic acid [4]: 0.613 | Z Score, Gamma-Aminobutyric acid [4]: 1.101 | Z Score, L-Proline [4]: 0.603 | Z Score, N-Acetylglutamic acid [4]: 0.613 | Linear Ratio, Gamma-glutamyl-Alanine [5]: 1.294 | Linear Ratio, Glycylproline [5]: 1.773 | VIP Score, Gamma-glutamyl-Alanine [5]: 1.575 | VIP Score, Glycylproline [5]: 2.205 | Z Abs, Gamma-glutamyl-Alanine [5]: 0.896 | Z Abs, Glycylproline [5]: 1.212 | Z Score, Gamma-glutamyl-Alanine [5]: 0.896 | Z Score, Glycylproline [5]: 1.212 | Linear Ratio, 2,3-Diphosphoglyceric acid [6]: 1.198 | Linear Ratio, Glycerol 3-phosphate [6]: 1.187 | VIP Score, 2,3-Diphosphoglyceric acid [6]: 2.600 | VIP Score, Glycerol 3-phosphate [6]: 1.651 | Z Abs, 2,3-Diphosphoglyceric acid [6]: 0.990 | Z Abs, Glycerol 3-phosphate [6]: 1.151 | Z Score, 2,3-Diphosphoglyceric acid [6]: 0.990 | Z Score, Glycerol 3-phosphate [6]: 1.151 | Linear Ratio, GC(18:1/22:0) (Glycosphingolipid Metabolism): 1.399 | VIP Score, GC(18:1/22:0) (Glycosphingolipid Metabolism): 2.123 | Z Abs, GC(18:1/22:0) (Glycosphingolipid Metabolism): 1.057 | Z Score, GC(18:1/22:0) (Glycosphingolipid Metabolism): 1.057 | Linear Ratio, 1-Methylhistidine [7]: 1.145 | VIP Score, 1-Methylhistidine [7]: 1.848 | Z Abs, 1-Methylhistidine [7]: 0.899 | Z Score, 1-Methylhistidine [7]: 0.899 | Linear Ratio, Citramalic acid (Krebs Cycle): 1.121 | Linear Ratio, Citric acid (Krebs Cycle): 1.142 | VIP Score, Citramalic acid (Krebs Cycle): 1.704 | VIP Score, Citric acid (Krebs Cycle): 1.590 | Z Abs, Citramalic acid (Krebs Cycle): 1.229 | Z Abs, Citric acid (Krebs Cycle): 0.759 | Z Score, Citramalic acid (Krebs Cycle): 1.229 | Z Score, Citric acid (Krebs Cycle): 0.759 | Linear Ratio, 2-Keto-L-gluconate (Microbiome Metabolism): 1.264 | Linear Ratio, Indoxyl sulfate (Microbiome Metabolism): 1.280 | Linear Ratio, Shikimate-3-phosphate (Microbiome Metabolism): 1.047 | Linear Ratio, p-Hydroxyphenylacetic acid (Microbiome Metabolism): 1.192 | VIP Score, 2-Keto-L-gluconate (Microbiome Metabolism): 2.994 | VIP Score, Indoxyl sulfate (Microbiome Metabolism): 1.858 | VIP Score, Shikimate-3-phosphate (Microbiome Metabolism): 1.886 | VIP Score, p-Hydroxyphenylacetic acid (Microbiome Metabolism): 2.546 | Z Abs, 2-Keto-L-gluconate (Microbiome Metabolism): 2.586 | Z Abs, Indoxyl sulfate (Microbiome Metabolism): 0.702 | Z Abs, Shikimate-3-phosphate (Microbiome Metabolism): 1.033 | Z Abs, p-Hydroxyphenylacetic acid (Microbiome Metabolism): 1.464 | Z Score, 2-Keto-L-gluconate (Microbiome Metabolism): 2.586 | Z Score, Indoxyl sulfate (Microbiome Metabolism): 0.702 | Z Score, Shikimate-3-phosphate (Microbiome Metabolism): 1.033 | Z Score, p-Hydroxyphenylacetic acid (Microbiome Metabolism): 1.464 | Linear Ratio, Azelaic acid [8]: 0.914 | VIP Score, Azelaic acid [8]: 1.929 | Z Abs, Azelaic acid [8]: 2.024
